Reference: the NIST ThermoML archive (doi:10.1016/j.jct.2017.10.002)
Where “and” joins values, the source holds several entries; their conditions need not be identical. Identical values can stand only once.

Conditions: 101.33 kPa, relaxation calorimetry

CCc1ncc[n-]1.CCc1ncc[n-]1.[Zn+2] [zinc(II) 2-ethylimidazolide]
molar entropy
Conditions	Crystal	Glass
1 K	–	0.008253 J/K/mol
2 K	–	0.0244 J/K/mol
3 K	–	0.06286 J/K/mol
4 K	–	0.1418 J/K/mol
5 K	0.3545 J/K/mol and 0.1203 J/K/mol and 0.3132 J/K/mol	0.2736 J/K/mol
6 K	0.5863 J/K/mol and 0.2089 J/K/mol and 0.5177 J/K/mol	0.464 J/K/mol
7 K	0.8825 J/K/mol and 0.3306 J/K/mol and 0.7801 J/K/mol	0.7139 J/K/mol
8 K	1.241 J/K/mol and 0.4909 J/K/mol and 1.099 J/K/mol	1.022 J/K/mol
9 K	1.66 J/K/mol and 0.6925 J/K/mol and 1.472 J/K/mol	1.385 J/K/mol
10 K	2.135 J/K/mol and 0.9364 J/K/mol and 1.895 J/K/mol	1.801 J/K/mol
15 K	5.252 J/K/mol and 2.784 J/K/mol and 4.686 J/K/mol	4.579 J/K/mol
20 K	9.321 J/K/mol and 5.606 J/K/mol and 8.386 J/K/mol	8.3 J/K/mol
25 K	14.04 J/K/mol and 9.263 J/K/mol and 12.76 J/K/mol	12.73 J/K/mol
30 K	19.18 J/K/mol and 13.59 J/K/mol and 17.67 J/K/mol	17.72 J/K/mol
35 K	24.62 J/K/mol and 18.45 J/K/mol and 23 J/K/mol	23.14 J/K/mol
40 K	30.28 J/K/mol and 23.75 J/K/mol and 28.69 J/K/mol	28.89 J/K/mol
45 K	36.11 J/K/mol and 29.41 J/K/mol and 34.67 J/K/mol	34.85 J/K/mol
50 K	42.08 J/K/mol and 35.35 J/K/mol and 40.84 J/K/mol	40.96 J/K/mol
60 K	54.27 J/K/mol and 47.75 J/K/mol and 53.56 J/K/mol	53.5 J/K/mol
70 K	66.58 J/K/mol and 60.58 J/K/mol and 66.61 J/K/mol	66.3 J/K/mol
80 K	78.9 J/K/mol and 73.57 J/K/mol and 79.79 J/K/mol	79.14 J/K/mol
90 K	91.13 J/K/mol and 86.51 J/K/mol and 92.92 J/K/mol	91.86 J/K/mol
100 K	103.17 J/K/mol and 99.26 J/K/mol and 105.89 J/K/mol	104.37 J/K/mol
110 K	114.97 J/K/mol and 111.76 J/K/mol and 118.62 J/K/mol	116.61 J/K/mol
120 K	126.51 J/K/mol and 123.99 J/K/mol and 131.07 J/K/mol	128.56 J/K/mol
130 K	137.77 J/K/mol and 135.92 J/K/mol and 143.23 J/K/mol	140.23 J/K/mol
140 K	148.77 J/K/mol and 147.57 J/K/mol and 155.11 J/K/mol	151.61 J/K/mol
150 K	159.51 J/K/mol and 158.95 J/K/mol and 166.72 J/K/mol	162.74 J/K/mol
160 K	170.01 J/K/mol and 170.08 J/K/mol and 178.07 J/K/mol	173.62 J/K/mol
170 K	180.29 J/K/mol and 180.98 J/K/mol and 189.19 J/K/mol	184.28 J/K/mol
180 K	190.36 J/K/mol and 191.68 J/K/mol and 200.09 J/K/mol	194.75 J/K/mol
190 K	200.25 J/K/mol and 202.19 J/K/mol and 210.8 J/K/mol	205.03 J/K/mol
200 K	209.96 J/K/mol and 212.52 J/K/mol and 221.34 J/K/mol	215.14 J/K/mol
210 K	219.52 J/K/mol and 222.71 J/K/mol and 231.73 J/K/mol	225.11 J/K/mol
220 K	228.95 J/K/mol and 232.75 J/K/mol and 241.97 J/K/mol	234.95 J/K/mol
230 K	238.24 J/K/mol and 242.68 J/K/mol and 252.1 J/K/mol	244.67 J/K/mol
240 K	247.43 J/K/mol and 252.5 J/K/mol and 262.12 J/K/mol	254.28 J/K/mol
250 K	256.52 J/K/mol and 262.22 J/K/mol and 272.04 J/K/mol	263.8 J/K/mol
260 K	265.53 J/K/mol and 271.86 J/K/mol and 281.89 J/K/mol	273.23 J/K/mol
270 K	274.45 J/K/mol and 281.43 J/K/mol and 291.67 J/K/mol	282.58 J/K/mol
273.15 K	277.25 J/K/mol and 284.43 J/K/mol and 294.74 J/K/mol	285.51 J/K/mol
280 K	283.31 J/K/mol and 290.94 J/K/mol and 301.39 J/K/mol	291.87 J/K/mol
290 K	292.12 J/K/mol and 300.39 J/K/mol and 311.06 J/K/mol	301.09 J/K/mol
298.15 K	299.26 J/K/mol and 308.06 J/K/mol and 318.92 J/K/mol	308.57 J/K/mol
300 K	300.87 J/K/mol and 309.8 J/K/mol and 320.7 J/K/mol	310.26 J/K/mol
